What is called IC50 is the concentration that inhibits the measured activity by half. By ΔTm is commonly meant the shift of the melting midpoint relative to a reference. As a reminder, the Tm is the temperature at the midpoint of the melting transition.

SMILES strings stand for the structures. *1 amine or outer side, *2 acyl side, *3 side chain or, on linkers, in order; H or OH if unused. Where a SMILES comes first, the peptide text is derived from it. The star is where a group is joined. AMC = Cc1cc(=O)oc2cc(N*)ccc12; Suc = O=C(CCC(=O)[*:2])[*:1]

In one test the target is T1, NAD-dependent protein deacylase sirtuin-5, mitochondrial (Homo sapiens, UniProt Q9NXA8). In words: Inhibition of human SIRT5 (34 to 269 residues) using Ac-Leu-Gly-Ser-Lys (Su)-AMC as fluorogenic substrate in presence of NAD+.
Target sequence in this assay (Q9NXA8 whole entry, the tested form may be a part): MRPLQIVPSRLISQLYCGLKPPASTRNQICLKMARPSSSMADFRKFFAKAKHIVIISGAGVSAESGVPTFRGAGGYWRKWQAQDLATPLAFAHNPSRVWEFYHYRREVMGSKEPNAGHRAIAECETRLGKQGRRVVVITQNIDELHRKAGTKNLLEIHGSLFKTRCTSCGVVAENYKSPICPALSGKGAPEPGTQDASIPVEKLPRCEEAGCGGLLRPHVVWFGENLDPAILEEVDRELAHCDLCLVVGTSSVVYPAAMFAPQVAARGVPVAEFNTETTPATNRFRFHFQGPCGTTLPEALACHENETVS
As to `CCOC(=O)c1cnc(Nc2ccccc2F)nc1NCCCNC(=S)NCCC(=O)O`, the half-maximal inhibitory concentration (IC50) is 5.87 µM.

Turning to `O=C(O)CCNC(=S)NCCCNc1nc(Nc2ccccc2Cl)ncc1C(=O)N[C@@H]1C[C@H]1c1ccc(F)c(F)c1`, the IC50 came to 1.24 µM.

For `CCOC(=O)c1cnc(Nc2ccc(Br)cc2)nc1NCCCNC(=S)NCCC(=O)O`, the half-inhibitory concentration (IC50) turned out to be 7.52 µM.

With `O=C(O)CCNC(=S)NCCCNc1nc(Nc2ccccc2Cl)ncc1C(=O)N1CCCC(c2ccccc2)C1` (stereo not given), the IC50 stood at 3.66 µM.

For `O=C(O)CCNC(=S)NCCCNc1nc(Nc2ccccc2Cl)ncc1C(=O)O`, the IC50 came to 1.64 µM.

For `O=C(O)CCNC(=S)NCCCNc1nc(Nc2ccccc2Cl)ncc1C(=O)N1CC[C@H](c2ccccc2)C1`, the half-maximal inhibitory concentration (IC50) worked out at 0.31 µM.

Regarding `O=C(O)CCNC(=S)NCCCNc1nc(Nc2ccccc2Cl)ncc1C(=O)N1CCC(c2ccccc2)CC1`, the IC50 was determined as 3.54 µM.

On to `COc1ccccc1NC(=O)c1cnc(Nc2ccccc2Cl)nc1NCCCNC(=S)NCCC(=O)O`, for which the IC50 turned out to be 5.37 µM.

For the molecule `O=C(O)CCNC(=S)NCCCNc1nc(Nc2ccccc2Cl)ncc1C(=O)N1CCC(c2ccccc2)C1` (stereo not given), the IC50 is 0.53 µM.

Turning to `CCOC(=O)c1cnc(Nc2c(F)cccc2F)nc1NCCCNC(=S)NCCC(=O)O`, the IC50 was 2.82 µM.

As to `O=C(O)CCNC(=S)NCCCNc1nc(Nc2ccccc2Cl)ncc1C(=O)Nc1ccccc1`, the half-maximal inhibitory concentration (IC50) worked out at 3.18 µM.

With `O=C(O)CCNC(=S)NCCCNc1nc(Nc2ccccc2Cl)ncc1C(=O)N[C@H]1c2ccccc2C[C@H]1O`, the concentration for half-maximal inhibition (IC50) was 4.18 µM.

As for `C[C@H](NC(=O)c1cnc(Nc2ccccc2Cl)nc1NCCCNC(=S)NCCC(=O)O)c1ccccc1`, the IC50 was 1.74 µM.

Regarding `O=C(O)CCNC(=S)NCCCNc1nc(Nc2ccccc2Cl)ncc1C(=O)NC1CC1`, the IC50 turned out to be 9.56 µM.

`CCOC(=O)c1cnc(Nc2c(C)cccc2C)nc1NCCCNC(=S)NCCC(=O)O`: the IC50 is 3.16 µM.

Take `COC(=O)c1cnc(Nc2ccccc2Cl)nc1NCCCNC(=S)NCCC(=O)O`: the IC50 stood at 3.34 µM.

With `CCOC(=O)c1cnc(Nc2cccc(Br)c2C)nc1NCCCNC(=S)NCCC(=O)O`, the IC50 came to 3.48 µM.

`O=C(O)CCNC(=S)NCCCNc1nc(Nc2ccccc2Cl)ncc1C(=O)NC1(c2ccccc2)CC1`: the concentration for half-maximal inhibition (IC50) amounted to 2.8 µM.

Turning to `CCOC(=O)c1cnc(Nc2ccc(C)cc2)nc1NCCCNC(=S)NCCC(=O)O`, the IC50 came out at 11.6 µM.

Turning to `CCOC(=O)c1cnc(Nc2ccccc2)nc1NCCCNC(=S)NCCC(=O)O`, the IC50 was found to be 7.67 µM.

With `CC(C)(C)OC(=O)[C@@H](NC(=O)c1cnc(Nc2ccccc2Cl)nc1NCCCNC(=S)NCCC(=O)O)c1ccccc1`, the IC50 amounted to 1.55 µM.

As for `CCOC(=O)c1cnc(Nc2ccc(F)cc2)nc1NCCCNC(=S)NCCC(=O)O`, the IC50 came to 7.54 µM.

With `CCCNC(=O)c1cnc(Nc2ccccc2Cl)nc1NCCCNC(=S)NCCC(=O)O`, the half-inhibitory concentration (IC50) was found to be 7.83 µM.

In the case of `CCOC(=O)c1cnc(Nc2cccc(C)c2Br)nc1NCCCNC(=S)NCCC(=O)O`, the IC50 amounted to 2.3 µM.

Turning to `COc1cc(NC(=O)c2cnc(Nc3ccccc3Cl)nc2NCCCNC(=S)NCCC(=O)O)cc(OC)c1`, the IC50 is 1.54 µM.

On to `CC(C)OC(=O)c1cnc(Nc2ccccc2Cl)nc1NCCCNC(=S)NCCC(=O)O`, for which the concentration for half-maximal inhibition (IC50) stood at 2.77 µM.

Take `CCOC(=O)c1cnc(Nc2cccc(F)c2Cl)nc1NCCCNC(=S)NCCC(=O)O`: the half-maximal inhibitory concentration (IC50) was found to be 2.39 µM.

Consider `CCOC(=O)c1cnc(Nc2cccc(F)c2C)nc1NCCCNC(=S)NCCC(=O)O`, for which the IC50 stood at 2.38 µM.

In the case of `CCOC(=O)c1cnc(Nc2cccc(F)c2)nc1NCCCNC(=S)NCCC(=O)O`, the IC50 came out at 9.57 µM.

`CCOC(=O)c1cnc(Nc2cccc(Cl)c2)nc1NCCCNC(=S)NCCC(=O)O`: the IC50 is 13.4 µM.

In the case of `O=C(O)CCNC(=S)NCCCNc1nc(Nc2ccccc2Cl)ncc1C(=O)NC1CCC1`, the IC50 turned out to be 7.93 µM.

Turning to `O=C(O)CCNC(=S)NCCCNc1nc(Nc2ccccc2Cl)ncc1C(=O)Nc1ccccc1-c1ccccc1`, the IC50 came out at 4.84 µM.

Take `O=C(O)CCNC(=S)NCCCNc1nc(Nc2ccccc2Cl)ncc1C(=O)N[C@@H](Cc1ccccc1)C(=O)O`: the 50% inhibitory concentration (IC50) turned out to be 1.71 µM.

Take `CCOC(=O)c1cnc(Nc2cccc(OC)c2)nc1NCCCNC(=S)NCCC(=O)O`: the IC50 turned out to be 17.1 µM.

For the molecule `O=C(O)CCNC(=S)NCCCNc1nc(Nc2ccccc2Cl)ncc1C(=O)N[C@H]1CCCC[C@@H]1O`, the IC50 was determined as 8.95 µM.

Regarding `CC(CCc1ccccc1)NC(=O)c1cnc(Nc2ccccc2Cl)nc1NCCCNC(=S)NCCC(=O)O` (stereo not given), the IC50 was found to be 1.6 µM.

As to `CCOC(=O)c1cnc(Nc2cccc(Br)c2)nc1NCCCNC(=S)NCCC(=O)O`, the IC50 was found to be 22 µM.

For `CCOC(=O)c1cnc(Nc2ccc(Cl)cc2)nc1NCCCNC(=S)NCCC(=O)O`, the IC50 is 9.4 µM.

Consider `CCOC(=O)c1cnc(Nc2ccccc2OC)nc1NCCCNC(=S)NCCC(=O)O`, for which the concentration for half-maximal inhibition (IC50) is 10.7 µM.

As to `Cc1ccccc1NC(=O)c1cnc(Nc2ccccc2Cl)nc1NCCCNC(=S)NCCC(=O)O`, the IC50 amounted to 5.45 µM.

Take `O=C(O)CCNC(=S)NCCCNc1nc(Nc2ccccc2Cl)ncc1C(=O)N1CCCC1`: the IC50 turned out to be 21.5 µM.

Turning to `O=C(O)CCNC(=S)NCCCNc1nc(Nc2ccccc2Cl)ncc1C(=O)Nc1cccc2ccccc12`, the IC50 amounted to 2.95 µM.

With `O=C(O)CCNC(=S)NCCCNc1nc(Nc2ccccc2Cl)ncc1C(=O)NCCc1cc2ccccc2[nH]1`, the IC50 came out at 1.43 µM.

For `CCOC(=O)c1cnc(Nc2ccccc2-c2ccccc2)nc1NCCCNC(=S)NCCC(=O)O`, the half-maximal inhibitory concentration (IC50) turned out to be 3.98 µM.

Regarding `CCOC(=O)c1cnc(Nc2ccccc2Br)nc1NCCCNC(=S)NCCC(=O)O`, the concentration for half-maximal inhibition (IC50) was 4.06 µM.

As for `O=C(O)CCNC(=S)NCCCNc1nc(Nc2ccccc2Cl)ncc1C(=O)N[C@@H]1C[C@H]1c1ccccc1`, the IC50 came to 2.54 µM.

With `CCOC(=O)c1cnc(Nc2ccccc2C)nc1NCCCNC(=S)NCCC(=O)O`, the concentration for half-maximal inhibition (IC50) came out at 3.53 µM.

In the case of `CC(C)c1ccccc1NC(=O)c1cnc(Nc2ccccc2Cl)nc1NCCCNC(=S)NCCC(=O)O`, the IC50 came to 2.82 µM.

Regarding `CC[C@H](NC(=O)c1cnc(Nc2ccccc2Cl)nc1NCCCNC(=S)NCCC(=O)O)c1ccccc1`, the half-inhibitory concentration (IC50) was found to be 3.72 µM.

With `C[C@@H](NC(=O)c1cnc(Nc2ccccc2Cl)nc1NCCCNC(=S)NCCC(=O)O)c1ccccc1`, the IC50 was determined as 1.08 µM.

As for `CC[C@@H](NC(=O)c1cnc(Nc2ccccc2Cl)nc1NCCCNC(=S)NCCC(=O)O)c1ccccc1`, the concentration for half-maximal inhibition (IC50) turned out to be 0.58 µM.

Regarding `CCOC(=O)c1cnc(Nc2ccccc2Cl)nc1NCCCNC(=S)NCCC(=O)O`, the IC50 amounted to 1.9 µM.

`CC(C)CNC(=O)c1cnc(Nc2ccccc2Cl)nc1NCCCNC(=S)NCCC(=O)O`: the IC50 came to 6.72 µM.

`CCOC(=O)c1cnc(Nc2ccc(OC)cc2)nc1NCCCNC(=S)NCCC(=O)O`: the IC50 is 10.5 µM.

With `O=C(O)CCNC(=S)NCCCNc1nc(Nc2ccccc2Cl)ncc1C(=O)N1CCOCC1`, the IC50 amounted to 8.6 µM.

For the molecule `CC(C)(C)OC(=O)[C@H](NC(=O)c1cnc(Nc2ccccc2Cl)nc1NCCCNC(=S)NCCC(=O)O)c1ccccc1`, the IC50 was 1.82 µM.

For `O=C(O)CCNC(=S)NCCCNc1nc(Nc2ccccc2Cl)ncc1C(=O)Nc1ccc2ccccc2c1`, the IC50 is 5.15 µM.

With `CCOC(=O)c1cnc(Nc2ccc(Br)cc2C)nc1NCCCNC(=S)NCCC(=O)O`, the IC50 was determined as 2.7 µM.

In the case of `CCOC(=O)c1cnc(Nc2cc(OC)cc(OC)c2)nc1NCCCNC(=S)NCCC(=O)O`, the half-maximal inhibitory concentration (IC50) came to 6.9 µM.

`O=C(O)CCNC(=S)NCCCNc1nc(Nc2ccccc2Cl)ncc1C(=O)N1CCCC1c1ccccc1` (stereo not given): the half-maximal inhibitory concentration (IC50) was found to be 27.3 µM.

On to `O=C(O)CCNC(=S)NCCCNc1nc(Nc2ccccc2Cl)ncc1C(=O)NCc1ccccc1`, for which the half-inhibitory concentration (IC50) was determined as 1.11 µM.

As to `CCOC(=O)c1cnc(Nc2cccc(C)c2)nc1NCCCNC(=S)NCCC(=O)O`, the IC50 turned out to be 16.9 µM.

For another test, the target named is T1, NAD-dependent protein deacylase sirtuin-5, mitochondrial. Nature of the test: Binding affinity to human SIRT5 (34 to 269 residues) assessed as thermal stabilization by measuring change in melting temperature at 60 uM incubated for 10 mins in presence of NAD+ by SYPRO orange dye based thermal shift assay.
Target sequence in this assay (Q9NXA8 37-310 limits assumed): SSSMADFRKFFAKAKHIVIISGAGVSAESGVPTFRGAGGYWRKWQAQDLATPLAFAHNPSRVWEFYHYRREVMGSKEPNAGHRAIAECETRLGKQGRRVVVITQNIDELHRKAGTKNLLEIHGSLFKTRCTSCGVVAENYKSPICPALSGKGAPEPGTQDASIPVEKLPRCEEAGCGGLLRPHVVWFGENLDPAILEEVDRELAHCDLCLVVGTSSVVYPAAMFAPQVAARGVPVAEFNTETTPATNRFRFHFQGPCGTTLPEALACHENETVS
Regarding `CC(=O)N[C@@H](CC(C)C)C(=O)NCC(=O)N[C@@H](CO)C(=O)N[C@@H](CCCCNC(=O)CCC(=O)O)C(=O)Nc1ccc2c(C)cc(=O)oc2c1` (Ac-LGSK(Suc)-{AMC}), the ΔTm amounted to 0.97 °C.

The target is the same in a further test. In words: Binding affinity to human SIRT5 (34 to 269 residues) assessed as thermal stabilization by measuring melting temperature at 60 uM incubated for 10 mins in presence of NAD+ by SYPRO orange dye based thermal shift assay (reference value: 66.32 degreeC).
Target sequence in this assay (Q9NXA8 37-310 limits assumed): as above
Turning to `CC(=O)N[C@@H](CC(C)C)C(=O)NCC(=O)N[C@@H](CO)C(=O)N[C@@H](CCCCNC(=O)CCC(=O)O)C(=O)Nc1ccc2c(C)cc(=O)oc2c1` (Ac-LGSK(Suc)-{AMC}), the melting temperature (Tm) turned out to be 67.3 °C.

Another test concerns the target T2, NAD-dependent protein deacetylase sirtuin-2 (Homo sapiens, UniProt Q8IXJ6).
T2 sequence (Q8IXJ6 whole entry): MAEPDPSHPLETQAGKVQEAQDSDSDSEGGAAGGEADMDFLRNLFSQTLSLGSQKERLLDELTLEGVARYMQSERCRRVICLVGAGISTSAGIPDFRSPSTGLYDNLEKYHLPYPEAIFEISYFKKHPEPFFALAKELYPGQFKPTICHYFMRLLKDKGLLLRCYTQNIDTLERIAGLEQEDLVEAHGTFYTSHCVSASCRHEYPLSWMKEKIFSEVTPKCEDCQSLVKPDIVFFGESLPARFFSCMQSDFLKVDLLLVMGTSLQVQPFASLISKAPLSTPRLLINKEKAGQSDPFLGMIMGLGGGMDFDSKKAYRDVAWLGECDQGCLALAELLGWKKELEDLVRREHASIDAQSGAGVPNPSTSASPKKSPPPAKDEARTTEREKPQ
Nature of the test: Inhibition of recombinant SIRT2 (unknown origin) using Ac-Glu-Thr-Asp-Lys (Dec)-AMC as substrate.
`O=C(O)CCNC(=S)NCCCNc1nc(Nc2ccccc2Cl)ncc1C(=O)N1CC[C@H](c2ccccc2)C1`: the half-maximal inhibitory concentration (IC50) turned out to be 39.6 µM.

The record behind these values is ChEMBL document CHEMBL5360644, “Structure-Activity Relationship Studies of 2,4,5-Trisubstituted Pyrimidine Derivatives Leading to the Identification of a Novel and Potent Sirtuin 5 Inhibitor against Sepsis-Associated Acute Kidney Injury” (J Med Chem, 2023).
